Test results reported in PubChem BioAssay AID248 (DTP/NCI, 2004).
Where “and” joins values, the source holds several entries; their conditions need not be identical. Equal entries are not always repeated. Inconclusive results and toxic doses are left out. Cut-off read from the data, not from the text of the source: active = T/C of 150% or more; inactive = T/C below 125%.

Tested on: L1210 leukemia ip in BDF1 mice, survival T/C
Test: NCI In Vivo Anticancer Drug Screen. Data for tumor model L1210 Leukemia (intraperitoneal) in B6D2F1 (BDF1) mice
Details: endpoint: mean survival time, higher = longer survival
Procedure, shortened: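 Antitumor effect is assessed in tumor-bearing animals. Survival in the compound arm is compared with a vehicle-dosed control arm and expressed as their quotient.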

[1] = dose: 12.5 mg/kg/injection, schedule: Q01DX009 (ip), vehicle: saline
[2] = dose: 25.0 mg/kg/injection, schedule: Q01DX009 (ip), vehicle: saline
[3] = dose: 50.0 mg/kg/injection, schedule: Q04DX003 (ip), vehicle: saline
[4] = dose: 100.0 mg/kg/injection, schedule: Q01DX001 (ip), vehicle: saline
[5] = dose: 200.0 mg/kg/injection, schedule: Q01DX001 (ip), vehicle: saline
[6] = dose: 400.0 mg/kg/injection, schedule: Q01DX001 (ip), vehicle: saline
[7] = dose: 100.0 mg/kg/injection, schedule: Q01DX001 (ip), vehicle: carboxymethylcellulose (CMC)
[8] = dose: 200.0 mg/kg/injection, schedule: Q01DX001 (ip), vehicle: carboxymethylcellulose (CMC)
[9] = dose: 400.0 mg/kg/injection, schedule: Q01DX001 (ip), vehicle: carboxymethylcellulose (CMC)
[10] = dose: 50.0 mg/kg/injection, schedule: Q01DX009 (ip), vehicle: saline with Tween-80
[11] = dose: 100.0 mg/kg/injection, schedule: Q01DX009 (ip), vehicle: saline with Tween-80
[12] = dose: 200.0 mg/kg/injection, schedule: Q01DX009 (ip), vehicle: saline with Tween-80
[13] = dose: 400.0 mg/kg/injection, schedule: Q01DX009 (ip), vehicle: saline with Tween-80
[14] = dose: 400.0 mg/kg/injection, schedule: Q01DX009 (ip), vehicle: gum acacia
[15] = dose: 100.0 mg/kg/injection, schedule: Q04DX002 (ip), vehicle: saline
[16] = dose: 200.0 mg/kg/injection, schedule: Q04DX002 (ip), vehicle: saline
[17] = dose: 400.0 mg/kg/injection, schedule: Q04DX002 (ip), vehicle: saline
[18] = dose: 100.0 mg/kg/injection, schedule: Q04DX003 (ip), vehicle: saline
[19] = dose: 100.0 mg/kg/injection, schedule: Q04DX003 (ip), vehicle: saline with Tween-80
[20] = dose: 200.0 mg/kg/injection, schedule: Q04DX003 (ip), vehicle: saline with Tween-80
[21] = dose: 400.0 mg/kg/injection, schedule: Q04DX003 (ip), vehicle: saline with Tween-80
[22] = dose: 100.0 mg/kg/injection, schedule: Q01DX001 (ip), vehicle: saline with Tween-80
[23] = dose: 200.0 mg/kg/injection, schedule: Q01DX001 (ip), vehicle: saline with Tween-80
[24] = dose: 400.0 mg/kg/injection, schedule: Q01DX001 (ip), vehicle: saline with Tween-80

Measured: T/C

CC1(C)CC(NC(=O)NCCCl)CC(C)(C)N1
inactive: [1] 98 % of control | dose: 12.5 mg/kg/injection, schedule: Q04DX003 (ip), vehicle: saline 101 % of control | [2] 95 % of control | dose: 25.0 mg/kg/injection, schedule: Q04DX003 (ip), vehicle: saline 114 % of control | [3] 104 % of control

COC(=O)Cc1cc(C)n(C)c(=O)c1CN1C(=O)c2ccccc2C1=O
inactive: dose: 100.0 mg/kg/injection, schedule: Q04DX003 (ip), vehicle: other 102 % of control | dose: 200.0 mg/kg/injection, schedule: Q04DX003 (ip), vehicle: other 107 % of control | dose: 400.0 mg/kg/injection, schedule: Q04DX003 (ip), vehicle: other 98 % of control

COc1ccccc1CC=O
inactive: [4] 102 % of control | [5] 103 % of control | [6] 97 % of control

[Cl][Pb]([Cl])([c]1ccccc1)[c]1ccccc1
inactive: dose: 12.5 mg/kg/injection, schedule: Q04DX002 (ip), vehicle: Klucel (hydroxypropylcellulose) (HPC) 88 % of control | dose: 25.0 mg/kg/injection, schedule: Q04DX002 (ip), vehicle: Klucel (hydroxypropylcellulose) (HPC) 88 % of control | dose: 50.0 mg/kg/injection, schedule: Q04DX002 (ip), vehicle: Klucel (hydroxypropylcellulose) (HPC) 91 % of control

CC(=O)Nc1ccc2ncccc2c1[N+](=O)[O-]
inactive: dose: 100.0 mg/kg/injection, schedule: Q01DX001 (ip), vehicle: other 102 % of control | dose: 200.0 mg/kg/injection, schedule: Q01DX001 (ip), vehicle: other 100 % of control | dose: 400.0 mg/kg/injection, schedule: Q01DX001 (ip), vehicle: other 100 % of control

Cc1c(CBr)c(=O)[nH]c2ccccc12
inactive: [4] 100 % of control | [5] 98 % of control

O=P(c1ccccc1)(c1ccccc1)C1(O)CCCCC1Cl (stereo not given)
inactive: [4] 105 % of control | [5] 96 % of control | [6] 100 % of control

O=C(O)C1CO1 (stereo not given)
inactive: dose: 100.0 mg/kg/injection, schedule: Q01DX001 (ip), vehicle: acetone 102 % of control | dose: 200.0 mg/kg/injection, schedule: Q01DX001 (ip), vehicle: acetone 98 % of control | dose: 400.0 mg/kg/injection, schedule: Q01DX001 (ip), vehicle: acetone 101 % of control

CC(=O)Oc1ccc(N)cc1OC(C)=O
inactive: dose: 150.0 mg/kg/injection, schedule: Q01DX001 (ip), vehicle: steriod suspending solution 95 % of control

N#Cc1cc2ccccc2nc1N
inactive: [7] 98 % of control | [8] 93 % of control | [9] 98 % of control

NS(=O)(=O)c1ccc(N=Nc2nc3[nH]c(=O)[nH]c(=O)c3[nH]2)cc1
inactive: [10] 97 % of control | [11] 94 % of control | [12] 94 % of control

CC/C=C(\CC(=O)OCC)C(=O)OCC
inactive: [11] 101 % of control | [12] 96 % of control | [13] 92 % of control

O=C(Nc1ccc(O)cc1)Nc1cccc(C(F)(F)F)c1
inactive: dose: 100.0 mg/kg/injection, schedule: Q01DX009 (ip), vehicle: gum acacia 103 % of control | dose: 200.0 mg/kg/injection, schedule: Q01DX009 (ip), vehicle: gum acacia 106 % of control | [14] 100 % of control

C[S+](C)CCS(=O)(=O)[O-]
inactive: [15] 99 % of control | [16] 96 % of control | [17] 96 % of control

CCN=C(c1ccc(NC(=O)c2ccc(C(=O)Nc3ccc(C(=NCC)N(CC)CC)cc3)cc2)cc1)N(CC)CC
inactive: dose: 0.94 mg/kg/injection, schedule: Q01DX Z (ip), vehicle: carboxymethylcellulose (CMC) 94 % of control | dose: 1.87 mg/kg/injection, schedule: Q01DX Z (ip), vehicle: carboxymethylcellulose (CMC) 95 % of control

C/C=C/C=C/COC(=O)CCCCCCC
inactive: dose: 25.0 mg/kg/injection, schedule: Q04DX002 (ip), vehicle: saline 107 % of control | dose: 50.0 mg/kg/injection, schedule: Q04DX002 (ip), vehicle: saline 103 % of control | [15] 103 % of control | [16] 110 % of control and 112 % of control | [17] 100 % of control

CC1OC(n2cnc3c(N)ncnc32)C(O)C1O (stereo not given)
inactive: dose: 50.0 mg/kg/injection, schedule: Q01DX001 (sc), vehicle: carboxymethylcellulose (CMC) 104 % of control | dose: 100.0 mg/kg/injection, schedule: Q01DX001 (sc), vehicle: carboxymethylcellulose (CMC) 90 % of control | dose: 200.0 mg/kg/injection, schedule: Q01DX001 (sc), vehicle: carboxymethylcellulose (CMC) 93 % of control | dose: 400.0 mg/kg/injection, schedule: Q01DX001 (sc), vehicle: carboxymethylcellulose (CMC) 106 % of control

CC(C)(O)C(CO)c1ccccc1 (stereo not given)
inactive: [4] 96 % of control

OCC1OC(n2cnc3c2ncn2nnnc32)C(O)C1O (stereo not given)
inactive: dose: 100.0 mg/kg/injection, schedule: Q01DX005 (ip), vehicle: saline 100 % of control | dose: 200.0 mg/kg/injection, schedule: Q01DX005 (ip), vehicle: saline 110 % of control

CN(C)c1ccc2c(c1)C(=O)c1cc(Br)ccc1-2
inactive: [7] 105 % of control | [8] 100 % of control | [9] 108 % of control

CN(C)c1ccc(/C=N/NC(=O)c2ccc(Cl)cc2)cc1
inactive: [10] 100 % of control | [11] 89 % of control

NC1CC[N-]CC1.NC1CC[N-]CC1.[Cl][Pt+2]([Cl])([Cl])[Cl]
inactive: [1] 101 % of control | [2] 101 % of control | dose: 50.0 mg/kg/injection, schedule: Q01DX009 (ip), vehicle: saline 95 % of control | [3] 106 % of control | dose: 100.0 mg/kg/injection, schedule: Q01DX009 (ip), vehicle: saline 101 % of control | [18] 104 % of control

CCOC(=O)c1cnn(C(N)=S)c1N
inactive: [10] 95 % of control | [11] 98 % of control | [19] 102 % of control | [20] 105 % of control | [21] 96 % of control

CS(=O)(=O)OCc1c(O)c2c(c(O)c1COS(C)(=O)=O)C(=O)C=CC2=O
inactive: dose: 25.0 mg/kg/injection, schedule: Q01DX009 (ip), vehicle: water 94 % of control | dose: 50.0 mg/kg/injection, schedule: Q01DX009 (ip), vehicle: water 97 % of control

CCOC(=O)c1ccc(NC(=O)Nc2ccc(OC)cc2Cl)cc1
inactive: [22] 96 % of control | [11] 104 % of control | dose: 100.0 mg/kg/injection, schedule: Q04DX002 (ip), vehicle: saline with Tween-80 94 % of control and 90 % of control | [19] 101 % of control | [23] 91 % of control | [12] 104 % of control | dose: 200.0 mg/kg/injection, schedule: Q04DX002 (ip), vehicle: saline with Tween-80 90 % of control and 91 % of control | [20] 97 % of control | [24] 106 % of control | [13] 92 % of control | dose: 400.0 mg/kg/injection, schedule: Q04DX002 (ip), vehicle: saline with Tween-80 94 % of control and 87 % of control | [21] 92 % of control

O=P(c1ccccc1)(c1ccccc1)C(Nc1ccc(Cl)cc1)c1ccco1 (stereo not given)
inactive: [14] 92 % of control

C=C1CC23CC[C@H]4[C@@](C)(CCC[C@@]4(C)C(=O)OC4OC(CO)C(O)C(O)C4O)[C@@H]2CC[C@@]1(OC1OC(CO)C(O)C(O)C1OC1OC(CO)C(O)C(O)C1O)C3 (stereo not given in full)
inactive: [22] 101 % of control | [23] 93 % of control | [24] 96 % of control

Nc1nc2c(c(-c3ccccc3)n1)CN(CCCC(=O)O)C2=O
inactive: [4] 103 % of control | [18] 100 % of control | [5] 105 % of control | dose: 200.0 mg/kg/injection, schedule: Q04DX003 (ip), vehicle: saline 98 % of control | [6] 97 % of control | dose: 400.0 mg/kg/injection, schedule: Q04DX003 (ip), vehicle: saline 100 % of control
